Assays:
[1] = tested on: Ba/F3 EGFR del19/T790M cell line; assay: CellTiter-Glo cell viability, Ba/F3 EGFR del19/T790M; format: cell-based; details: CellTiter-Glo, 72 hours, read-out: Ba/F3 EGFR del19/T790M IC50
Procedure: (§1) The measurement of an activity on wild-type and mutation Ba/F3 EGFR cell line of the compound of the present invention was experimented by utilizing the CellTiter-Glo system sold by Promega, as follow. The CellTiter-Glo assay is a method for measuring the ATP present in cells in cell culture conditions to determine the cell viability.
(§2) The analysis of an EGFR inhibitory ability effect of the compound was carried out in accordance with the analysis reaction recipe below.
(§3) After the reaction of 72 hours, the plate treated with the compound was allowed to stand for 30 minutes at ambient temperature, and then, was further treated with 100 μl of the reagent, and was shaked for 10 minutes at ambient temperature.

Ba/F3 EGFR wt. cell line = assay: CellTiter-Glo cell viability, Ba/F3 EGFR wild-type; format: cell-based; details: 72 hours
Procedure: as §1, §2
(§4) After the reaction of 72 hours, the plate treated with the compound was allowed to stand for 30 minutes at ambient temperature, and then, was further treated with 100 μl of the reagent, and was shaked for 10 minutes at ambient temperature. […] The measurement values measured at the eight concentrations of the compound were analyzed by using the Prism program (version 5.01, Graphpad Software, Inc.), and IC50 value of the compound was calculated, which is an inhibitory ability indicator.

EGFR wt. = EGFR wt. (Homo sapiens (Human), UniProt P00533); assay: HTRF enzyme assay, wild-type EGFR; format: biochemical; details: recombinant enzyme
EGFR wt., sequence (P00533 25-1210): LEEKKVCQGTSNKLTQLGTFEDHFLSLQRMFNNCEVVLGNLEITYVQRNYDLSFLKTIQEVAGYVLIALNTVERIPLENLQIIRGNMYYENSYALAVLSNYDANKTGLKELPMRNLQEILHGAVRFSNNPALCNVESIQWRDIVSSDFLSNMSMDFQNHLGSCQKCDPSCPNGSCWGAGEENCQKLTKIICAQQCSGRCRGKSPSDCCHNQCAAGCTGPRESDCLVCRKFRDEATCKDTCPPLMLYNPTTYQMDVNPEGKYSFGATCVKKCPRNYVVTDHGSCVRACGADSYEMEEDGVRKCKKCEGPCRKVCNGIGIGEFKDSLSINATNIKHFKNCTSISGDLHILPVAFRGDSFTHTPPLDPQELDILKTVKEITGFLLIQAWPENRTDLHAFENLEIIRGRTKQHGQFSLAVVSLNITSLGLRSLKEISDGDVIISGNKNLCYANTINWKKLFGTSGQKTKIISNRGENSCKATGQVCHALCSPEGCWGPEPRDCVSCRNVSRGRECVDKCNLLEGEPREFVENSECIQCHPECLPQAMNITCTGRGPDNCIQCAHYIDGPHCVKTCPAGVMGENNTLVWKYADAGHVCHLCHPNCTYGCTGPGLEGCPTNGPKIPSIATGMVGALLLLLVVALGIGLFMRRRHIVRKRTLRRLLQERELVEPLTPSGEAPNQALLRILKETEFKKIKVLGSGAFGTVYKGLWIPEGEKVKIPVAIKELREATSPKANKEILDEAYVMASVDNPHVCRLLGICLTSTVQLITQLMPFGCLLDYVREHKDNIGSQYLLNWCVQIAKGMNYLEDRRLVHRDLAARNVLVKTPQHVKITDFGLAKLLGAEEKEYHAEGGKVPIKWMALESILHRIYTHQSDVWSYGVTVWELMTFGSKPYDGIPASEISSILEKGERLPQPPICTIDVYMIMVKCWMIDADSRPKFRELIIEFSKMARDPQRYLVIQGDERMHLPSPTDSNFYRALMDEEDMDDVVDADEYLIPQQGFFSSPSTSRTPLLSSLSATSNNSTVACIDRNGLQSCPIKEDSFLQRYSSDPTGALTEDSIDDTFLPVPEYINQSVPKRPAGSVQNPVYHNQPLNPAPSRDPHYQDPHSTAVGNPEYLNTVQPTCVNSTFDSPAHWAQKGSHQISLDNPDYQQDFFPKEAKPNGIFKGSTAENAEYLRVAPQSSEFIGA
Procedure: (§5) The measurement of an activity on wild-type and EGFR mutation enzyme of the compound of the present invention was experimented by utilizing the HTRF system sold by Cisbio, as follow.
(§6) The composition of the assay buffer used in the activity measurement was 50 mM Tris-HCl pH 7.5, 100 mM NaCl, 7.5 mM MgCl2, 3 mM KCl, 0.01% Tween 20, 0.1% BSA, 1 mM DTT. The enzymatic reaction was carried out hereto by using the peptide substrate labeled with ATP of […] concentration and biotin of […] concentration. The analysis of an EGFR activity inhibitory effect of the compound was carried out in accordance with the analysis reaction recipe below.
(§7) Component 1: […] of EGFR wild-type or mutation enzyme
(§8) Component 2: […] of compound solution
(§9) Component 3: […] of peptide labeled with ATP and biotin
(§10) The enzymatic reaction was initiated by mixing Component 1 and Component 2 first, and then, adding component 3. After the reaction for 2 hours at 37° C., […] of a measurement solution consisting of streptavidin-XL665 provided by Cisbio and anti-phosphotyrosine antibody labeled with europium was added to the enzymatic reaction solution and reacted for 1 hour at ambient temperature. […] The measurement values measured at the seven concentrations of the compound were analyzed by using the Prism program (version 5.01, Graphpad Software, Inc.), and IC50 value of the compound was calculated, which is an inhibitory ability indicator.

EGFR del19/T790M/C797S = EGFR del19/T790M/C797S (Homo sapiens, UniProt P00533, C797S/DEL746-750/T790M); assay: HTRF enzyme assay, EGFR del19/T790M/C797S; format: biochemical; details: HTRF, recombinant enzyme; read-out: EGFR del19/T790M/C797S IC50
EGFR del19/T790M/C797S, sequence (P00533 with tags, fused parts or gaps C797S/DEL746-750/T790M limits assumed): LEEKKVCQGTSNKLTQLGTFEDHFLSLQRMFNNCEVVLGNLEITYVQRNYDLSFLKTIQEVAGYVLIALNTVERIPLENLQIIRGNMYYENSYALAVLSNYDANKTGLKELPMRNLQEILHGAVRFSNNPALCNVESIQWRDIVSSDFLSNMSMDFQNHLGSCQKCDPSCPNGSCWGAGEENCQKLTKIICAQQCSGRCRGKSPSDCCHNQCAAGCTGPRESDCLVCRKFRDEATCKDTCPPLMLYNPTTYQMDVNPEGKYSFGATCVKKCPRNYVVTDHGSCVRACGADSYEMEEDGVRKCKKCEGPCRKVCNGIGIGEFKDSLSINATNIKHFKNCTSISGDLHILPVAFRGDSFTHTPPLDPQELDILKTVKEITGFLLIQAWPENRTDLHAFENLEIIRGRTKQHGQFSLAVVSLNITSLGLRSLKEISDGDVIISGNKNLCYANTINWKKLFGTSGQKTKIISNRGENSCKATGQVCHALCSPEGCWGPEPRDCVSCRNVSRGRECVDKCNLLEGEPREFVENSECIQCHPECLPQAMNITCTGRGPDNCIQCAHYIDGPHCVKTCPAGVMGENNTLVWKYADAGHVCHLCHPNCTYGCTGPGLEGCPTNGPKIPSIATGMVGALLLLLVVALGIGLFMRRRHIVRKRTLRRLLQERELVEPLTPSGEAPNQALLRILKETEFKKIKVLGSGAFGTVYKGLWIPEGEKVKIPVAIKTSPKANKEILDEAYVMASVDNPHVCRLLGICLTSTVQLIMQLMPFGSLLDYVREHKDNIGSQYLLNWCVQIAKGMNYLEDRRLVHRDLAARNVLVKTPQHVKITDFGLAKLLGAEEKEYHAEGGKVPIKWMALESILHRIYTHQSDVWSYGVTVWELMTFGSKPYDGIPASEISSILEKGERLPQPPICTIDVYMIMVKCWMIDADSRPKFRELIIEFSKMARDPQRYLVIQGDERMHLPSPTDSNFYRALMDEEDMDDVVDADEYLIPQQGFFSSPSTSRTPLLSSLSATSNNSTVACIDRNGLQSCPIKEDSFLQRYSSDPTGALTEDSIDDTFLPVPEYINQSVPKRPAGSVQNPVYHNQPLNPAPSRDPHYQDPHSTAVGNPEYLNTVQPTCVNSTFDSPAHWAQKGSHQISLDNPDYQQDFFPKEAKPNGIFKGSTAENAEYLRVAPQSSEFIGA
Procedure: as §5, §6, §7, §8, §9, §10

[2] = tested on: Ba/F3 EGFR del19 cell line; assay: CellTiter-Glo cell viability, Ba/F3 EGFR del19; format: cell-based; details: 72 hours
Procedure: as §1, §2, §4

EGFR del19 = EGFR del19 (Homo sapiens (Human), UniProt P00533, DEL746-750); assay: HTRF enzyme assay, EGFR del19; format: biochemical; details: recombinant enzyme
EGFR del19, sequence (P00533 other isoform, or with tags, fused parts or gaps del 1-668/del 746-750 limits assumed): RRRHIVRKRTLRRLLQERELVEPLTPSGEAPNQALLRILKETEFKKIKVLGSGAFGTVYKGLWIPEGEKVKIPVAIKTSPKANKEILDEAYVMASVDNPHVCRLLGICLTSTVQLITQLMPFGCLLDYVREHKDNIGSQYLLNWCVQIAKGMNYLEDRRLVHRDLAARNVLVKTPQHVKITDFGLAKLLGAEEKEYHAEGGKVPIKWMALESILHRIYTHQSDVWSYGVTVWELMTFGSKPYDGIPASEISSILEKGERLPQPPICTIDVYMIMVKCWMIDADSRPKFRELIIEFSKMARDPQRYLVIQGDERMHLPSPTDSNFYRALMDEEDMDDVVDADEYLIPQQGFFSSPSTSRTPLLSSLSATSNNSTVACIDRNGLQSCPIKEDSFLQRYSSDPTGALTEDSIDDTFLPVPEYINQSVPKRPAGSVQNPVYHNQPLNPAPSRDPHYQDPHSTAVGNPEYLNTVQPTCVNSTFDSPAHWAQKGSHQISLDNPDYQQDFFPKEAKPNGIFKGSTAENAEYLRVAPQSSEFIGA
Procedure: as §5, §6, §7, §8, §9, §10

[3] = tested on: Ba/F3 EGFR del19/T790M/C797S cell line; assay: CellTiter-Glo cell viability, Ba/F3 EGFR del19/T790M/C797S; format: cell-based; details: CellTiter-Glo, 72 hours, read-out: Ba/F3 EGFR del19/T790M/C797S IC50
Procedure: as §1, §2, §3

EGFR del19/T790M = EGFR del19/T790M (Homo sapiens (Human), UniProt P00533, DEL746-750/T790M); assay: HTRF enzyme assay, EGFR del19/T790M; format: biochemical; details: recombinant enzyme
EGFR del19/T790M, sequence (P00533 other isoform, or with tags, fused parts or gaps T790M/del 1-668/del 746-750 limits assumed): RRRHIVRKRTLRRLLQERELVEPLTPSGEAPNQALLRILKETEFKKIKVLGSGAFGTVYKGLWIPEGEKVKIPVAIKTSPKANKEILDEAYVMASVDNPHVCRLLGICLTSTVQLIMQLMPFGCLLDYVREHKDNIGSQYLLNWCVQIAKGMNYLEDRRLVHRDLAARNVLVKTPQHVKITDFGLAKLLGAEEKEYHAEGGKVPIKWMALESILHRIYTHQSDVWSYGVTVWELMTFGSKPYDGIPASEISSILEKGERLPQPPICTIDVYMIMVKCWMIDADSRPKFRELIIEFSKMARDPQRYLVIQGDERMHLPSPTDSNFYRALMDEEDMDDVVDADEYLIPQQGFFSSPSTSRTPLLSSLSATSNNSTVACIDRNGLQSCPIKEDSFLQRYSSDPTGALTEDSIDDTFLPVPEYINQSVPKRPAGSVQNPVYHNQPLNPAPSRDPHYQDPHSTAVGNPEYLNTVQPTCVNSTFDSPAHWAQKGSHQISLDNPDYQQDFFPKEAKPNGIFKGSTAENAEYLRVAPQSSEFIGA
Procedure: as §5, §6, §7, §8, §9, §10

SMILES	IC50 [1]	IC50 (Ba/F3 EGFR wt. cell line)	IC50 (EGFR wt.)	IC50 (EGFR del19/T790M/C797S)	IC50 [2]	IC50 (EGFR del19)	IC50 [3]	IC50 (EGFR del19/T790M)
COc1cc(C2CCN(C3CCN(CCO)CC3)CC2)ccc1Nc1ncc(Cl)c(Nc2ccccc2NS(C)(=O)=O)n1 [Example 14, N-(2-((5-chloro-2-((4-(1′-(2-hydroxyethyl)-[1,4′-bipiperidin]-4-yl)-2-methoxyphenyl)amino)pyrimidin-4-yl)amino)phenyl)methanesulfonamide]	540 nM	750 nM	1400 nM	34 nM	500 nM	6 nM	110 nM	95 nM
COc1cc(C2CCN(C3CCNCC3)CC2)ccc1Nc1ncc(Cl)c(Nc2ccccc2NS(C)(=O)=O)n1 [Example 16, N-(2-((2-((4-([1,4′-bipiperidin]-4-yl)-2-methoxyphenyl)amino)-5-chloropyrimidin-4-yl)amino)phenyl)methanesulfonamide]	2300 nM	> 10000 nM	5400 nM	23 nM	> 10000 nM	44 nM	> 10000 nM	340 nM
COc1cc(C2CCN(C3CCN(C)CC3)CC2)ccc1Nc1ncc(Cl)c(Nc2ccccc2NS(C)(=O)=O)n1 [Example 17, N-(2-((5-chloro-2-((2-methoxy-4-(1′-methyl-[1,4′-bipiperidin]-4-yl)phenyl)amino)pyrimidin-4-yl)amino)phenyl)methanesulfonamide]	1700 nM	2100 nM	600 nM	12 nM	2200 nM	4 nM	680 nM	78 nM
COc1cc(C2CCN(C3CCN(C(C)=O)CC3)CC2)ccc1Nc1ncc(Cl)c(Nc2ccccc2NS(C)(=O)=O)n1 [Example 18, N-(2-((2-((4-(1′-acetyl-[1,4′-bipiperidin]-4-yl)-2-methoxyphenyl)amino)-5-chloropyrimidin-4-yl)amino)phenyl)methanesulfonamide]	1400 nM	4400 nM	970 nM	30 nM	2700 nM	13 nM	2000 nM	92 nM
COc1cc(N2CCC(N3CCN(C(C)=O)CC3)CC2)ccc1Nc1ncc(Cl)c(Nc2ccccc2NS(C)(=O)=O)n1 [Example 19, N-(2-((2-((4-(4-(4-acetylpiperazin-1-yl)piperidin-1-yl)-2-methoxyphenyl)amino)-5-chloropyrimidin-4-yl)amino)phenyl)methanesulfonamide]	660 nM	3100 nM	700 nM	42 nM	1100 nM	0.7 nM	970 nM	69 nM
COc1cc(N2CCC(N3CCNCC3)CC2)ccc1Nc1ncc(Cl)c(Nc2ccccc2NS(C)(=O)=O)n1 [Example 21, N-(2-((5-chloro-2-((2-methoxy-4-(4-(piperazin-1-yl)piperidin-1-yl)phenyl)amino)pyrimidin-4-yl)amino)phenyl)methanesulfonamide]	550 nM	2200 nM	160 nM	5 nM	3600 nM	0.1 nM	1700 nM	14 nM
COc1cc(N2CCN(C3CCN(C)CC3)CC2)ccc1Nc1ncc(Cl)c(Nc2ccccc2NS(C)(=O)=O)n1 [Example 25, N-(2-((5-chloro-2-((2-methoxy-4-(4-(1-methylpiperidin-4-yl)piperazin-1-yl)phenyl)amino)pyrimidin-4-yl)amino)phenyl)methanesulfonamide]	780 nM	340 nM	300 nM	9 nM	210 nM	0.2 nM	27 nM	18 nM
COc1cc(N2CCN(C)CC2)ccc1Nc1ncc(Cl)c(Nc2ccccc2NS(C)(=O)=O)n1 [Example 28, N-(2-((5-chloro-2-((2-methoxy-4-(4-methylpiperazin-1-yl)phenyl)amino)pyrimidin-4-yl)amino)phenyl)methanesulfonamide]	690 nM	1400 nM	640 nM	9 nM	1400 nM	0.9 nM	1700 nM	27 nM
COc1cc(N2CCNCC2)ccc1Nc1ncc(Cl)c(Nc2ccccc2NS(N)(=O)=O)n1 [Example 29, 4-(4-((5-chloro-4-((2-(sulfamoylamino)phenyl)amino)pyrimidin-2-yl)amino)-3-methoxyphenyl)piperazine]	2100 nM	2800 nM	1200 nM	7 nM	1900 nM	5 nM	2900 nM	4 nM
COc1cc(N2CCNCC2)ccc1Nc1ncc(Br)c(Nc2ccccc2NS(N)(=O)=O)n1 [Example 30, 4-(4-((5-bromo-4-((2-(sulfamoylamino)phenyl)amino)pyrimidin-2-yl)amino)-3-methoxyphenyl)piperazine]	850 nM	5400 nM	1800 nM	3 nM	680 nM	24 nM	2700 nM	34 nM
COc1cc(N2CCOCC2)ccc1Nc1ncc(Cl)c(Nc2ccccc2NS(C)(=O)=O)n1 [Example 32, N-(2-((5-chloro-2-((2-methoxy-4-morpholinophenyl)amino)pyrimidin-4-yl)amino)phenyl)methanesulfonamide]	1300 nM	8000 nM	1300 nM	14 nM	1900 nM	4 nM	3300 nM	160 nM

Reference: patent US11253516B2, “N2,N4-diphenylpyrimidine-2,4-diamine derivative, method for preparing same, and pharmaceutical composition containing same as active ingredient for prevention or treatment of cancer” (Korea Research Institute of Chemical Technology, priority 2017, dated 2022)
